The source of these data is ChEMBL document CHEMBL5365447, “Pronucleotides of 2',3'-Dideoxy-2',3'-Didehydrothymidine as Potent Anti-HIV Compounds” (J Med Chem, 2023).

In data set [1] the target is T1, DNA polymerase subunit gamma-1 (Homo sapiens) (UniProt P54098).
T1 sequence (whole entry): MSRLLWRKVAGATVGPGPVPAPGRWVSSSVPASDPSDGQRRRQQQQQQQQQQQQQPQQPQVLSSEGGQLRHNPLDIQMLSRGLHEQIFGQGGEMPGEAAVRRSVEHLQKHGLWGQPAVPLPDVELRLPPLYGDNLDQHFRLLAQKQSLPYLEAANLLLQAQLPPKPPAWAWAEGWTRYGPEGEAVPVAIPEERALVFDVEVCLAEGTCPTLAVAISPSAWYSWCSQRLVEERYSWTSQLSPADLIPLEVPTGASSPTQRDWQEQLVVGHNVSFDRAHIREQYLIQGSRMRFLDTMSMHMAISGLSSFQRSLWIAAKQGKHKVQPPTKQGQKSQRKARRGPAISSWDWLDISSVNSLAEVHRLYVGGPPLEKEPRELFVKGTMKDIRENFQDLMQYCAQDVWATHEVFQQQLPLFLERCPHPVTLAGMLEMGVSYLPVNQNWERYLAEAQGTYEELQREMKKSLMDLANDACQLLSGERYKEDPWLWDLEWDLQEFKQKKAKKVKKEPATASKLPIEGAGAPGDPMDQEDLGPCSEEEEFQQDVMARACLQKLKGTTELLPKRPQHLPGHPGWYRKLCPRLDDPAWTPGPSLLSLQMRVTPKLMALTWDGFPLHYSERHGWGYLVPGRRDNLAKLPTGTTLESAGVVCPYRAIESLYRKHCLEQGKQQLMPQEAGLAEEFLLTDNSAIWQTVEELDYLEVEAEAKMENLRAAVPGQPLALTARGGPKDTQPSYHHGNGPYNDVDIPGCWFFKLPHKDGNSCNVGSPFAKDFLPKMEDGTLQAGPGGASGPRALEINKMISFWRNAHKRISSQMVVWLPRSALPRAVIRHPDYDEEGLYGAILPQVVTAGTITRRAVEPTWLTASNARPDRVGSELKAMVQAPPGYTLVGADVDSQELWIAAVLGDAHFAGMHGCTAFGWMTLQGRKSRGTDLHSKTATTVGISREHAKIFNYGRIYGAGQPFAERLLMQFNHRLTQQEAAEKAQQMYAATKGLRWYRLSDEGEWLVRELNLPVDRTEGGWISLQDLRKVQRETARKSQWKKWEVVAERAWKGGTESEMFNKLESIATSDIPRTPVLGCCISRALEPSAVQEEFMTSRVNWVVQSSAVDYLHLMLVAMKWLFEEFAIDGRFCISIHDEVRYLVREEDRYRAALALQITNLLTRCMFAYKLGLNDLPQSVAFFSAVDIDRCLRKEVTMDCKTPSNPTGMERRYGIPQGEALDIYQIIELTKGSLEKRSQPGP
Put plainly: Substrate activity at human DNA polymerase gamma measured after 4 hrs by electrophoresis based primer extension assay.

Data set [2] can be described thus: Selectivity index, ratio of CC50 for human CEM cells to EC50 for HIV-2 ROD infected in thymidine kinase-deficient human CEM cells. The note with it: read-out: Ratio CC50/EC50. Type of data set: toxicity.
The nature of data set [3]: Retention time of the compound by HPLC analysis. Type of data set: physicochemical.
The nature of data set [4]: Prodrug conversion in human CEM/0 cell extract assessed as ((2S,5R)-5-(5-methyl-2,4-dioxo-3,4-dihydropyrimidin-1(2H)-yl)-2,5-dihydrofuran-2-yl)methyl dihydrogen phosphate formation by HPLC analysis. The note with it: ccrf-cem. The class given is ADME.
Data set [5] is described as follows: Chemical stability of the compound in phosphate buffer assessed as half life at pH 7.3 by HPLC analysis. The class given is physicochemical.
The test system of data set [6] is Human immunodeficiency virus. The data set can be described thus: Substrate activity at HIV reverse transcriptase measured after 4 hrs by electrophoresis based primer extension assay.
Data set [7] relates to Human immunodeficiency virus 2. The data set can be described thus: Potency index, ratio of 3'-deoxy-2',3'-dehydrothymidine EC50 to compound EC50 for antiviral activity against HIV-2 ROD infected in thymidine kinase-deficient human CEM[…] cells. The class given is functional.
Data set [8] in a line: Cytotoxicity against human CEM cells assessed as reduction in cell viability incubated for 4 to 5 days by light microscopic analysis. Type of data set: toxicity, cell-based. To be noted: CEM cells (CCRF-CEM), time 4-5 day.
Data set [9] is described as follows: Prodrug conversion in pH 7.3 phosphate buffer assessed as ((2S,5R)-5-(5-methyl-2,4-dioxo-3,4-dihydropyrimidin-1(2H)-yl)-2,5-dihydrofuran-2-yl)methyl tri-hydrogen diphosphate formation by measuring half life in presence of pig liver esterase by HPLC analysis. Type of data set: ADME.
In data set [10] the test system is Human immunodeficiency virus 1. The data set can be described thus: Potency index, ratio of 3'-deoxy-2',3'-dehydrothymidine EC50 to compound EC50 for antiviral activity against HIV-1 HE infected in wild-type human CEM/0 cells. The class given is functional.
Data set [11] in a line: Prodrug conversion in human CEM/0 cell extract assessed as metabolite formation by measuring half life by HPLC analysis. The note with it: ccrf-cem. The class given is ADME.
Data set [12] deals with Human immunodeficiency virus 1. Put plainly: Antiviral activity against HIV-1 HE infected in wild-type human CEM/0 cells assessed as inhibition of virus-induced cytopathic effect incubated for 4 to 5 days by light microscopic analysis. The class given is functional, organism-based. To be noted: Human immunodeficiency virus 1, HE, CCRF-CEM. For orientation: Damage to the host cells serves as the signal in cytopathic effect assays.

For data set [13], the system named is Human immunodeficiency virus 2. The data set can be described thus: Antiviral activity against HIV-2 ROD infected in wild-type human CEM/0 cells assessed as inhibition of virus-induced cytopathic effect incubated for 4 to 5 days by light microscopic analysis. The class given is functional, organism-based. To be noted: Human immunodeficiency virus 2, ROD, CCRF-CEM.

Active and inactive are the calls of the source. The rule behind the calls is not given here. Bounds are passed on as bounds.

As for `CCCCCCCCCCCCCCCCCCP(=O)(OC)OP(=O)(O)OP(=O)(O)OC[C@@H]1C=C[C@H](n2cc(C)c(=O)[nH]c2=O)O1.N.N` (stereo partly drawn), in data set [1], the result was inactive. Moreover, the selectivity ratio in data set [2] is 83. Also, in [3], the Retention_time is 15.2 min. In addition, the Drug metabolism result in data set [4] is “Metabolite_Detected”. The half-life in data set [5] is 27.2 days. Further, in data set [6], the outcome was Active. Moreover, the “Ratio EC50” value in data set [7] amounted to 10000; in data set [10], 4. In addition, the CC50 in data set [8] was 40000 nM. Also, the t1/2 in data set [9] is greater than 6.25 days; in data set [11] it was greater than 0.625 days. Further, the EC50 in data set [12] was determined as 51 nM; in [13] it was 80 nM.

A word on the half-life: it is the time in which the quantity being followed falls by half. In general, CC50 refers to the concentration giving 50% cytotoxicity. The term EC50 denotes the concentration that produces a half-maximal response.
